According to patent publication US20230278972A1, “SUBSTITUTED HALOALKYL SULFONANILIDE HERBICIDES” (FMC Corporation, priority 2020, published 2023):

What was measured:
Assay type in all cases: in vivo
[1] = test system: barnyardgrass (Echinochloa crus-galli); assay: Test A preemergence, barnyardgrass; details: Preemergence; for Plant response rating, Barnyardgrass: 0 to 100 scale (0 no effect, 100 complete control); for Barnyardgrass plant response rating: visual injury on 0 to 100 scale (0 no effect, 100 complete control), approximately 10 days
In short: (§1)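 Whole-plant herbicidal screen in pots of loam blended with sand. Sprays used a surfactant-containing, non-phytotoxic solvent vehicle. Timing was preemergence soil-directed at planting or postemergence at the one- to two-leaf stage (2–10 cm).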

kochia (Bassia scoparia) [2] = assay: Test A preemergence, kochia; details: Preemergence; for Plant response rating, Kochia: 0 to 100 scale (0 no effect, 100 complete control); for Kochia plant response rating: visual injury on 0 to 100 scale (0 no effect, 100 complete control), approximately 10 days
In short: as §1

[3] = test system: ragweed (common ragweed, Ambrosia artemisiifolia); assay: Test A preemergence, ragweed; details: Preemergence; for Plant response rating, Ragweed: 0 to 100 scale (0 no effect, 100 complete control); for Ragweed plant response rating: visual injury on 0 to 100 scale (0 no effect, 100 complete control), approximately 10 days
In short: as §1

[4] = test system: Ryegrass, Italian (Italian ryegrass, Lolium multiflorum); assay: Test A preemergence, Ryegrass, Italian; details: Preemergence; for Plant response rating, Ryegrass, Italian: 0 to 100 scale (0 no effect, 100 complete control); for Ryegrass, Italian plant response rating: visual injury on 0 to 100 scale (0 no effect, 100 complete control), approximately 10 days
In short: as §1

[5] = test system: Foxtail, Giant (giant foxtail, Setaria faberi); assay: Test A preemergence, Foxtail, Giant; details: Preemergence; for Plant response rating, Foxtail, Giant: 0 to 100 scale (0 no effect, 100 complete control); for Foxtail, Giant plant response rating: visual injury on 0 to 100 scale (0 no effect, 100 complete control), approximately 10 days
In short: as §1

[6] = test system: pigweed (Amaranthus retroflexus); assay: Test A preemergence, pigweed; details: for Plant response rating, Pigweed: 0 to 100 scale (0 no effect, 100 complete control); for Pigweed plant response rating: visual injury on 0 to 100 scale (0 no effect, 100 complete control), approximately 10 days
In short: (§2)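 Barnyardgrass, wheat and galium were treated postemergence at the one- to two-leaf stage (2 to 10 cm) with chemicals formulated in non-phytotoxic solvent plus surfactant, grown in loam soil–sand pots. Pigweed was sown in the same blend and given a preemergence directed soil spray.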

[7] = test system: barnyardgrass (Echinochloa crus-galli); assay: Test A postemergence, barnyardgrass; details: Postemergence
In short: as §2

kochia (Bassia scoparia) [8] = assay: Test A postemergence, kochia; details: Postemergence
In short: as §1

[9] = test system: ragweed (common ragweed, Ambrosia artemisiifolia); assay: Test A postemergence, ragweed; details: Postemergence
In short: as §1

[10] = test system: Ryegrass, Italian (Italian ryegrass, Lolium multiflorum); assay: Test A postemergence, Ryegrass, Italian; details: Postemergence
In short: as §1

[11] = test system: Foxtail, Giant (giant foxtail, Setaria faberi); assay: Test A postemergence, Foxtail, Giant; details: Postemergence
In short: as §1

[12] = test system: pigweed (Amaranthus retroflexus); assay: Test A postemergence, pigweed; details: Postemergence
In short: as §1

[13] = test system: wheat (Triticum aestivum); assay: Test A postemergence, wheat; details: Postemergence
In short: as §2

corn (Zea mays) = assay: Test A postemergence, corn; details: Postemergence
In short: as §1

[14] = test system: blackgrass (Alopecurus myosuroides); assay: Test A postemergence, blackgrass; details: Postemergence
In short: as §1

[15] = test system: galium (catchweed bedstraw, Galium aparine); assay: Test A postemergence, galium; details: Postemergence
In short: as §2

[16] = 31 g ai/ha, visual injury, approx. 10 days
[17] = 31 g ai/ha, visual injury on 0 to 100 scale (0 no effect, 100 complete control), approx. 10 days
[18] = 125 g ai/ha, 0 to 100 scale (0 no effect, 100 complete control)
[19] = 125 g ai/ha, visual injury approx. 10 days, 0 to 100 scale (0 no effect, 100 complete control)
[20] = 500 g ai/ha, visual injury vs untreated controls after approx. 10 days, 0 to 100 scale (0 no effect, 100 complete control)
[21] = 125 g ai/ha, visual injury, approx. 10 days
[22] = 500 g ai/ha, visual injury approx. 10 days, 0 to 100 scale (0 no effect, 100 complete control)

Cc1cc(Cl)c(NS(=O)(=O)C(F)(F)F)cc1C(=O)N1CCOCC1(C)C [Compound 153]
Plant response rating, Barnyardgrass [1, 16]: 0 | Barnyardgrass plant response rating ([1]; 125 g ai/ha): 70 | Plant response rating, Kochia (kochia (Bassia scoparia) [2]; [16]): 60 | Kochia plant response rating (kochia (Bassia scoparia) [2]; 125 g ai/ha): 80 | Plant response rating, Ragweed [3, 16]: 40 | Ragweed plant response rating ([3]; 125 g ai/ha): 60 | Plant response rating, Ryegrass, Italian [4, 16]: 30 | Ryegrass, Italian plant response rating ([4]; 125 g ai/ha): 70 | Plant response rating, Foxtail, Giant [5, 16]: 40 | Foxtail, Giant plant response rating ([5]; 125 g ai/ha): 90 | Plant response rating, Pigweed [6, 16]: 80 | Pigweed plant response rating ([6]; 125 g ai/ha): 90 | Plant response rating, Barnyardgrass [7, 17]: 10 | Plant response rating, Barnyardgrass [7, 18]: 50 | Plant response rating, Kochia (kochia (Bassia scoparia) [8]; [17]): 0 | Plant response rating, Kochia (kochia (Bassia scoparia) [8]; [18]): 10 | Plant response rating, Ragweed [9, 17]: 30 | Plant response rating, Ragweed [9, 18]: 70 | Plant response rating, Ryegrass, Italian [10, 17]: 30 | Plant response rating, Ryegrass, Italian [10, 18]: 80 | Plant response rating, Foxtail, Giant [11, 17]: 10 | Plant response rating, Foxtail, Giant [11, 18]: 20 | Plant response rating, Pigweed [12, 17]: 0 | Plant response rating, Pigweed [12, 18]: 30 | Plant response rating, Wheat [13, 17]: 0 | Plant response rating, Wheat [13, 18]: 30 | Plant response rating, Corn (corn (Zea mays); [17]): 0 | Plant response rating, Corn (corn (Zea mays); [18]): 20 | Plant response rating, Blackgrass [14, 17]: 0 | Plant response rating, Blackgrass [14, 18]: 50 | Plant response rating, Galium [15, 17]: 60 | Plant response rating, Galium [15, 18]: 70

COc1cnn(-c2cc(NS(=O)(=O)C(F)(F)F)c(C)cc2C)c(=O)c1 [Compound 54]
Barnyardgrass plant response rating ([1]; 125 g ai/ha): 0 | Plant response rating, Barnyardgrass ([1]; 500 g ai/ha): 0 | Kochia plant response rating (kochia (Bassia scoparia) [2]; 125 g ai/ha): 60 | Plant response rating, Kochia (kochia (Bassia scoparia) [2]; 500 g ai/ha): 90 | Ragweed plant response rating ([3]; 125 g ai/ha): 50 | Plant response rating, Ragweed ([3]; 500 g ai/ha): 90 | Ryegrass, Italian plant response rating ([4]; 125 g ai/ha): 0 | Plant response rating, Ryegrass, Italian ([4]; 500 g ai/ha): 20 | Foxtail, Giant plant response rating ([5]; 125 g ai/ha): 0 | Plant response rating, Foxtail, Giant ([5]; 500 g ai/ha): 10 | Pigweed plant response rating ([6]; 125 g ai/ha): 40 | Plant response rating, Pigweed ([6]; 500 g ai/ha): 90 | Plant response rating, Barnyardgrass [7, 19]: 0 | Barnyardgrass plant response rating [7, 20]: 10 | Plant response rating, Kochia (kochia (Bassia scoparia) [8]; [19]): 60 | Kochia plant response rating (kochia (Bassia scoparia) [8]; [20]): 80 | Plant response rating, Ragweed [9, 19]: 80 | Ragweed plant response rating [9, 20]: 90 | Plant response rating, Ryegrass, Italian [10, 19]: 40 | Ryegrass, Italian plant response rating [10, 20]: 40 | Plant response rating, Foxtail, Giant [11, 19]: 0 | Foxtail, Giant plant response rating [11, 20]: 0 | Plant response rating, Pigweed [12, 19]: 40 | Pigweed plant response rating [12, 20]: 70 | Plant response rating, Wheat [13, 19]: 0 | Wheat plant response rating [13, 20]: 0 | Plant response rating, Corn (corn (Zea mays); [19]): 0 | Corn plant response rating (corn (Zea mays); [20]): 10 | Plant response rating, Blackgrass [14, 19]: 0 | Blackgrass plant response rating [14, 20]: 0 | Plant response rating, Galium [15, 19]: 60 | Galium plant response rating [15, 20]: 90

Cc1cc(F)c(C(=O)N2CCOCC2)cc1NS(=O)(=O)C(F)(F)F [Compound 240]
Plant response rating, Barnyardgrass [1, 21]: 0 | Barnyardgrass plant response rating ([1]; 500 g ai/ha): 50 | Plant response rating, Kochia (kochia (Bassia scoparia) [2]; [21]): 70 | Kochia plant response rating (kochia (Bassia scoparia) [2]; 500 g ai/ha): 90 | Plant response rating, Ragweed [3, 21]: 30 | Ragweed plant response rating ([3]; 500 g ai/ha): 50 | Plant response rating, Ryegrass, Italian [4, 21]: 40 | Ryegrass, Italian plant response rating ([4]; 500 g ai/ha): 70 | Plant response rating, Foxtail, Giant [5, 21]: 30 | Foxtail, Giant plant response rating ([5]; 500 g ai/ha): 80 | Plant response rating, Pigweed [6, 21]: 0 | Pigweed plant response rating ([6]; 500 g ai/ha): 80 | Plant response rating, Barnyardgrass [7, 18]: 40 | Plant response rating, Barnyardgrass [7, 22]: 70 | Plant response rating, Kochia (kochia (Bassia scoparia) [8]; [18]): 50 | Plant response rating, Kochia (kochia (Bassia scoparia) [8]; [22]): 80 | Plant response rating, Ragweed [9, 18]: 70 | Plant response rating, Ragweed [9, 22]: 90 | Plant response rating, Ryegrass, Italian [10, 18]: 30 | Plant response rating, Ryegrass, Italian [10, 22]: 60 | Plant response rating, Foxtail, Giant [11, 18]: 20 | Plant response rating, Foxtail, Giant [11, 22]: 60 | Plant response rating, Pigweed [12, 18]: 30 | Plant response rating, Pigweed [12, 22]: 50 | Plant response rating, Wheat [13, 18]: 0 | Plant response rating, Wheat [13, 22]: 30 | Plant response rating, Corn (corn (Zea mays); [18]): 20 | Plant response rating, Corn (corn (Zea mays); [22]): 10 | Plant response rating, Blackgrass [14, 18]: 0 | Plant response rating, Blackgrass [14, 22]: 10 | Plant response rating, Galium [15, 18]: 50 | Plant response rating, Galium [15, 22]: 70
